Measurements reported in patent US20120214862A1, “MODULATION OF FACTOR 7 EXPRESSION” (ISIS Pharmaceuticals, Inc., priority 2009, published 2012).
In the oligonucleotide strings, read from the 5' end, every base follows the letter of its sugar. An asterisk marks phosphorothioate; unmarked linkages are phosphodiester. Other units and linkages are bracketed, terminal groups are in braces. A string of capitals states the bases alone. e = 2'-O-(2-methoxyethyl) (MOE); [5mC] = 5-methylcytosine; d = 2'-deoxy (DNA)

Test system: human Factor 7 mRNA
Assay: Antisense inhibition of human Factor 7 mRNA in HepB3 cells, lipofectin, 50 nM, real-time RT-PCR
Format: cell-based
Details: for % Inhibition (human Factor 7 mRNA): 50 nM, ~24 h
Method: Antisense oligonucleotides targeted to a Factor 7 nucleic acid were tested for their effects on Factor 7 mRNA in vitro. Cultured HepB3 cells at a density of 4,000 cells per well were transfected using lipofectin reagent with 50 nM antisense oligonucleotide. After a treatment period of approximately 24 hours, RNA was isolated from the cells and Factor 7 mRNA levels were measured by real-time RT-PCR, as described herein. Factor 7 mRNA levels were adjusted according to total RNA content as measured by RIBOGREEN®. Results are presented as percent inhibition of Factor 7, relative to untreated control cells.
(§1) Antisense oligonucleotides targeted to a Factor 7 nucleic acid were designed and tested for their effects on Factor 7 mRNA in vitro. Certain antisense oligonucleotides from Table 3 were also retested for their effects on Factor 7 mRNA in vitro. Cultured HepB3 cells at a density of 4,000 cells per well were transfected using lipofectin reagent with 50 nM antisense oligonucleotide. After a treatment period of approximately 24 hours, RNA was isolated from the cells and Factor 7 mRNA levels were measured by real-time RT-PCR, as described herein. Human Factor 7 primer probe set RTS 2927 was used to measure mRNA levels. Factor 7 mRNA levels were adjusted according to total RNA content as measured by RIBOGREEN®. Results are presented as percent inhibition of Factor 7, relative to untreated control.
as §1, with “tested” for “tested for their effects on Factor 7 mRNA in vitro. Certain antisense oligonucleotides from Table 3 were also retested”
These gapmers were designed by creating gapmers shifted slightly upstream and downstream (i.e. “microwalk”) of the original gapmers from Table 7. Gapmers were also created with various motifs, e.g. 5-10-5 MOE, 3-14-3 MOE, and 2-13-5 MOE. These gapmers were tested in vitro. Cultured HepB3 cells at a density of 4,000 cells per well were transfected using lipofectin reagent with 50 nM antisense oligonucleotide. After a treatment period of approximately 24 hours, RNA was isolated from the cells and Factor 7 mRNA levels were measured by real-time RT-PCR. Factor 7 mRNA levels were adjusted according to total RNA content, as measured by RIBOGREEN®. Results are presented as percent inhibition of Factor 7, relative to untreated control cells.

[1] = Example 1, HepB3 cells, lipofectin, relative to untreated control cells
[2] = HepB3 cells, gapmers targeted to nucleobases 14707 to 14732 of SEQ ID NO: 1 (Table 11)
[3] = HepB3 cells, lipofectin, 50 nM antisense oligonucleotide, approximately 24 hours, primer probe set RTS 2927, relative to untreated control
[4] = HepB3 cells, gapmers targeted to nucleobases 11830 to 11869 of SEQ ID NO: 1 (Table 9)
[5] = Example 4, HepB3 cells, lipofectin, relative to untreated control
[6] = HepB3 cells, gapmers (5-10-5, 3-14-3, 2-13-5 MOE) targeted to nucleobases 4868 to 4899 of SEQ ID NO: 1
[7] = Example 6 microwalk, nucleobases 15098 to 15122 of SEQ ID NO: 1, HepB3, lipofectin

407642 (antisense e[5mC]*eA*eG*e[5mC]*eA*dG*d[5mC]*d[5mC]*dT*dG*dA*dG*dG*d[5mC]*d[5mC]*eA*eG*e[5mC]*eA*eG) [compound 407642]
% Inhibition (human Factor 7 mRNA) [1]: 78%
% Inhibition of human Factor 7 mRNA levels [2]: 63%

422204 (antisense eG*e[5mC]*eA*dG*d[5mC]*d[5mC]*dT*dG*dA*dG*dG*d[5mC]*d[5mC]*dA*dG*d[5mC]*dA*eG*eA*eT) [compound 422204]
% Inhibition of human Factor 7 mRNA levels [2]: 72%

407666 (antisense eT*e[5mC]*e[5mC]*e[5mC]*e[5mC]*dA*dG*dG*dA*d[5mC]*dA*dT*d[5mC]*dT*dG*eG*eA*eA*e[5mC]*eT) [compound 407666]
% Inhibition (human Factor 7 mRNA) [1]: 52%

416427 (antisense e[5mC]*e[5mC]*e[5mC]*eT*eG*dA*dA*dG*d[5mC]*d[5mC]*d[5mC]*dA*dA*dG*d[5mC]*eA*eG*eA*eA*eG) [compound 416427]
% Inhibition of human Factor 7 mRNA levels [3]: 5%

422200 (antisense e[5mC]*e[5mC]*eT*dG*dA*dG*dG*d[5mC]*d[5mC]*dA*dG*d[5mC]*dA*dG*dA*dT*d[5mC]*eA*e[5mC]*eG) [compound 422200]
% Inhibition of human Factor 7 mRNA levels [2]: 58%

422240 (antisense eA*eG*dA*d[5mC]*dA*dA*dT*dG*dG*dT*d[5mC]*dA*dG*dG*dG*e[5mC]*eT*eG*eG*eT) [compound 422240]
% Inhibition of human Factor 7 mRNA levels [4]: 66%

422102 (antisense e[5mC]*eT*eG*eA*eG*dG*dA*dG*dA*d[5mC]*dA*dA*dT*dG*dG*eT*e[5mC]*eA*eG*eG) [compound 422102]
% Inhibition of human Factor 7 mRNA levels [4]: 62%

416535 (antisense eG*e[5mC]*eA*eG*eG*dA*dT*dG*d[5mC]*dA*d[5mC]*dA*d[5mC]*d[5mC]*dA*eG*eG*eG*e[5mC]*eT) [compound 416535]
% Inhibition of human Factor 7 mRNA levels [3]: 47%

422264 (antisense e[5mC]*eG*dG*dA*dA*dG*dA*dA*dG*dG*dG*dA*d[5mC]*dG*dG*eA*eA*eG*eG*eT) [compound 422264]
% Inhibition (human Factor 7 mRNA) [5]: 24%

422121 (antisense eG*e[5mC]*eG*e[5mC]*eG*dG*dA*dA*dG*dA*dA*dG*dG*dG*dA*e[5mC]*eG*eG*eA*eA) [compound 422121]
% Inhibition (human Factor 7 mRNA) [5]: 43%

422222 (antisense eA*eG*e[5mC]*d[5mC]*d[5mC]*dG*dA*dG*dT*dT*d[5mC]*dT*dG*d[5mC]*dA*dG*dG*eA*eG*e[5mC]) [compound 422222]
% Inhibition of human Factor 7 mRNA levels [6]: 55%

407888 (antisense e[5mC]*eG*eA*eA*eG*dA*d[5mC]*dT*dG*d[5mC]*dA*dG*d[5mC]*d[5mC]*dA*eG*eG*e[5mC]*eA*eG) [compound 407888]
% Inhibition (human Factor 7 mRNA) [1]: 34%

422212 (antisense eG*eA*e[5mC]*dA*dG*d[5mC]*dA*d[5mC]*dA*d[5mC]*dA*dT*dG*dG*dA*dG*dT*e[5mC]*eA*eG) [compound 422212]
% Inhibition (human Factor 7 mRNA) [7]: 30%

422129 (antisense eG*eT*eT*eA*e[5mC]*dT*dG*dA*dG*d[5mC]*dG*d[5mC]*dG*dG*dA*eA*eG*eA*eA*eG) [compound 422129]
% Inhibition (human Factor 7 mRNA) [5]: 45%

407945 (antisense eA*eA*eT*e[5mC]*eA*dT*dG*dG*dG*d[5mC]*dA*dA*d[5mC]*d[5mC]*d[5mC]*eA*eG*eT*eG*eG) [compound 407945]
% Inhibition (human Factor 7 mRNA) [1]: 56%

422097 (antisense eG*eA*eG*eA*e[5mC]*dA*dA*dT*dG*dG*dT*d[5mC]*dA*dG*dG*eG*e[5mC]*eT*eG*eG) [compound 422097]
% Inhibition of human Factor 7 mRNA levels [4]: 59%

416447 (antisense e[5mC]*eA*eT*eG*eG*dA*dT*dA*dT*dT*d[5mC]*dA*dA*d[5mC]*dT*eG*eT*eG*eG*eG) [compound 416447]
% Inhibition of human Factor 7 mRNA levels [3]: 17%

422156 (antisense eG*eG*eT*d[5mC]*dA*dG*dG*dG*d[5mC]*dT*dG*dG*dT*dT*dT*dT*dG*eG*eA*eG) [compound 422156]
% Inhibition of human Factor 7 mRNA levels [4]: 38%

416505 (antisense eG*e[5mC]*eA*eG*eA*dT*dT*dT*dG*d[5mC]*dA*dT*d[5mC]*dA*dG*eA*eA*eA*eA*eG) [compound 416505]
% Inhibition of human Factor 7 mRNA levels [3]: 45%

422230 (antisense e[5mC]*eA*dT*dG*d[5mC]*dA*dT*dG*dG*dT*dG*dA*dT*dG*d[5mC]*eT*eT*e[5mC]*eT*eG) [compound 422230]
% Inhibition of human Factor 7 mRNA levels (HepB3 cells, gapmers targeted to nucleobases 15188 to 15211 of SEQ ID NO: 1 (Table 13)): 65%

403090 (antisense eA*eG*eT*e[5mC]*e[5mC]*dT*dG*dG*dG*dT*d[5mC]*dA*dT*d[5mC]*dA*eG*e[5mC]*e[5mC]*eG*eG) [compound 403090]
% Inhibition (human Factor 7 mRNA) [1]: 69%

422205 (antisense eA*eG*e[5mC]*dA*dG*d[5mC]*d[5mC]*dT*dG*dA*dG*dG*d[5mC]*d[5mC]*dA*dG*d[5mC]*eA*eG*eA) [compound 422205]
% Inhibition of human Factor 7 mRNA levels [2]: 63%

416540 (antisense eG*eG*eA*e[5mC]*eT*dG*dG*dT*dG*dT*d[5mC]*dA*dT*d[5mC]*dT*eG*eG*eG*eA*e[5mC]) [compound 416540]
% Inhibition of human Factor 7 mRNA levels [3]: 38%

422105 (antisense eT*eG*eG*e[5mC]*eT*dG*dA*dG*dG*dA*dG*dA*d[5mC]*dA*dA*eT*eG*eG*eT*e[5mC]) [compound 422105]
% Inhibition of human Factor 7 mRNA levels [4]: 60%

422143 (antisense e[5mC]*e[5mC]*eG*eA*eG*dT*dT*d[5mC]*dT*dG*d[5mC]*dA*dG*dG*dA*eG*e[5mC]*eG*eG*e[5mC]) [compound 422143]
% Inhibition of human Factor 7 mRNA levels [6]: 70%

416496 (antisense e[5mC]*eA*eA*e[5mC]*eA*d[5mC]*dT*dT*d[5mC]*dA*dA*dA*dT*dA*d[5mC]*eG*eA*eT*e[5mC]*eT) [compound 416496]
% Inhibition of human Factor 7 mRNA levels [3]: 0%

422137 (antisense eA*e[5mC]*eA*eG*e[5mC]*dA*d[5mC]*dA*d[5mC]*dA*dT*dG*dG*dA*dG*eT*e[5mC]*eA*eG*e[5mC]) [compound 422137]
% Inhibition (human Factor 7 mRNA) [7]: 45%

407664 (antisense e[5mC]*eA*eG*eG*eG*d[5mC]*dG*dA*dG*dG*d[5mC]*dA*dA*d[5mC]*d[5mC]*e[5mC]*e[5mC]*eG*eT*eG) [compound 407664]
% Inhibition (human Factor 7 mRNA) [1]: 70%

407597 (antisense eT*eG*eT*eT*eG*dA*d[5mC]*dA*dT*dT*d[5mC]*d[5mC]*d[5mC]*d[5mC]*dA*eT*eG*eG*eG*eA) [compound 407597]
% Inhibition (human Factor 7 mRNA) [1]: 39%

422253 (antisense e[5mC]*e[5mC]*dG*d[5mC]*d[5mC]*dG*dG*d[5mC]*dT*d[5mC]*dT*dG*d[5mC]*dT*d[5mC]*eA*eT*e[5mC]*e[5mC]*e[5mC]) [compound 422253]
% Inhibition of human Factor 7 mRNA levels (HepB3 cells, gapmers targeted to nucleobases 13760 to 13789 of SEQ ID NO: 1 (Table 10)): 61%

416564 (antisense eG*e[5mC]*e[5mC]*eA*e[5mC]*dT*d[5mC]*dA*d[5mC]*dA*dG*dA*dA*dA*dG*e[5mC]*eT*eG*eG*eA) [compound 416564]
% Inhibition of human Factor 7 mRNA levels [3]: 0%

422172 (antisense eT*eG*eG*d[5mC]*dT*dG*dA*dG*dG*dA*dG*dA*d[5mC]*dA*dA*dT*dG*eG*eT*e[5mC]) [compound 422172]
% Inhibition of human Factor 7 mRNA levels [4]: 39%

416569 (antisense eG*e[5mC]*e[5mC]*eT*eG*dG*dT*dG*dT*dG*d[5mC]*dA*d[5mC]*dA*d[5mC]*eA*eT*eT*eG*eT) [compound 416569]
% Inhibition of human Factor 7 mRNA levels [3]: 12%

422189 (antisense e[5mC]*eG*e[5mC]*dG*dG*dA*dA*dG*dA*dA*dG*dG*dG*dA*d[5mC]*dG*dG*eA*eA*eG) [compound 422189]
% Inhibition (human Factor 7 mRNA) [5]: 0%
